We go through one molecule from patent publication US20250387481A1, “PRE-TREATED T CELLS FOR USE AS A MEDICAMENT” (STICHTING HET NEDERLANDS KANKER INSTITUUT-ANTONI VAN …, priority 2022, published 2025).

In data set [1] the test system is MMTV-PyMT organoids expressing OVA. The experiment in a line: Co-culture of OT I T cells with MMTV-PyMT organoids expressing OVA (cleaved-caspase 3). As to conditions: OT I T cells pre-treated with docetaxel vs control. The format is cell-based, mouse. How it is done: Experiments were approved by the Animal Welfare Committee of the Netherlands Cancer Institute and were performed in accordance with national guidelines. Mice were housed in individually ventilated cage (IVC) systems under specific pathogen-free conditions and received chow and water ad libitum. FVB/NRj females (Janvier), C57BL/6-Tg (TcraTcrb) 1100Mjb/J females (OT I mice, Jackson laboratory), and ROSA26mTmG FVB females (NKI) were used at 8-20 weeks of age at the time of fat pad injection of tumor organoids or spleen isolation.
For T cells isolated from mouse mammary tumors, T cells were directly co-cultured with tumor organoids after FACS isolation. For T cells isolated from the spleen, T cells were treated for 72 h with PBS or with docetaxel (docetaxel 10 nmol/L), in the presence or absence of an LCKi (10 μmol/L, Merck Millipore, Cat. No. 213743-31-8). To evaluate the docetaxel-specificity of our observations, T cells were treated with paclitaxel 10 nmol/L or carboplatin 50 μmol/L for 72 h. Subsequently, T cells were collected and washed 3 times in PBS to remove residual chemotherapy or LCKi.
Organoids were fixed in 4% paraformaldehyde in PBS for 20 min at room temperature, followed by permeabilization in 0.2% TritonX-100 in PBS for 15 min at room temperature. […]

In data set [2] the test system is human healthy lung organoids. The experiment in a line: Healthy organoids killing assay with tumor-reactive T cells. The format is cell-based. Particulars: tumor-reactive T cells pre-treated with docetaxel. How it is done:
To express luciferase in the tumor organoids, we used pLenti CMV Puro LUC (w168-1; Plasmid #17477; Addgene). Tumor-reactive PBMC were thawed in pre-warmed T cell medium and incubated for 15 minutes with 25 U/ml Benzonase. After washing, cells were re-suspended at 2−3×10^6 cells/ml in T cell medium and cultured overnight at 37° C. The day after, PBMC were incubated with (or without) 10 nmol/L docetaxel for 48 hr. To determine the sensitivity of tumor and healthy organoids to T cell-mediated killing, flatbottom non-tissue culture treated plates were coated with 5 μg/ml αCD28 and kept at 4° C. overnight prior to co-culture. Tumor organoids were previously transduced with luciferase reporter gene. Organoids were isolated from Geltrex 48 hours prior to co-culture and stimulated with 200 ng/ml IFNγ for 24 hr prior to co-culture. The next day, part of the organoids was dissociated to single cells and counted using a hemocytometer. […] At the end of the 72 hours, tumor and healthy organoids viability in the different conditions was evaluated by microscopy, taking bright-field pictures at 5 and 10× magnification. Tumor cell viability in the different conditions was also measured by luciferase reporter assay using 3 μg/mL luciferin. Luminescence was measured with a Tecan reader (1,000 ms exposure).

As for `CC(=O)O[C@@]12CO[C@@H]1C[C@H](O)[C@@]1(C)C(=O)[C@H](O)C3=C(C)[C@@H](OC(=O)[C@H](O)[C@@H](NC(=O)OC(C)(C)C)c4ccccc4)C[C@@](O)([C@@H](OC(=O)c4ccccc4)[C@H]21)C3(C)C` [docetaxel], in data set [1], the “cytotoxicity of OT I T cells (apoptosis in OVA+ organoids)” value was “further enhanced”. Besides, in data set [2], the “killing of healthy organoids” value is on record as “not against healthy organoids”.
